Test results reported in patent US10603335B2, “Cancer treatment combination compositions, methods and uses” (Board of Supervisors of Louisiana State University and …, priority 2016, dated 2020).

Assays:
[1] = test system: Mia-PaCa-2 cancer cell xenografts; experiment: Mia-PaCa-2 subcutaneous xenograft tumor growth; type: in vivo, SCID/bg mice; settings: IP
Method: (§1) Male SCID/bg mice (5 weeks old; Taconic Biosciences, NY) were housed in the standard mouse Plexiglas cages in a room maintained at constant temperature and humidity under a 12 h light and darkness cycle. The experimental protocol was reviewed and approved by the Institutional Animal Care and Use Committee at the LSUHSC Shreveport.
Mia-PaCa-2 cells were harvested from cell cultures after trypsinization. The cells were washed once in serum-free medium and re-suspended in HBSS. Only suspensions consisting of single cells with >90% viability were used for the injections. Mice were injected s.c. on the right hind flank with 5×10^6 MIA-PaCa cells (ATCC, VA) in 50% Matrigel/HBSS with 26 Ga syringes.
(§2) The vehicle treated group received an equivalent amount of PBS. Tumor volumes were measured with calipers once a week and body weights of mice were measured once a week. Tumor volumes were calculated by the formula: V(mm3)=(length×width*2)/2, in which width was the shortest measurement in millimeters. Mice were necropsied 10 days after the last treatment for the low dose treatment (day 35 after the randomization and day 55 from the tumor cell implantation) or 2 days after the last treatment for high dose treatment (day 28 after the randomization and 48 from the tumor cell implantation). Tumors were dissected, weighed and photographed.

[2] = test system: cleaved PARP, XIAP and cIAP2 in PATC53 cells; experiment: Western blot of apoptosis markers, PATC53; type: cell-based
Method: PATC53 cells were treated as described and Western blot was perform in order to detect apoptosis markers (cleaved PARP) and inhibitors of apoptosis (XIAP and cIAP2) 24 h post-treatment. Actin was used as loading controls.
PATC53 cells were treated as presented and Western blot was perform in order to detect apoptosis markers (cleaved PARP) and inhibitors of apoptosis (XIAP and cIAP2) 48 h post-treatment. Actin was used as loading controls.
(§3) Pancreatic cancer cells were collected after trypsinization and seeded in 12-well plates for 24 h before treatments. Treatments were performed as described in the Figure legends. Following treatment whole-cell lysates were collected in Laemmli buffer and analyzed by Western blot. The following primary antibodies were used: cleaved PARP, c-IAP2, XIAP, cleaved Parp-1 (all from Cell Signaling), actin (Santa Cruz).

PATX193 tissue slices = experiment: Live Tissue Sensitivity Assay (LTSA), PATX193; type: cell-based; settings: 72 hours
Method: (§4) Animal experiment protocol was reviewed and approved by The University of Texas MD Anderson Cancer Center (Houston, Tex.) institutional review board and in accordance with the Guidelines for the Care and Use of Laboratory Animals published by the National Institutes of Health. PDXs were grown from cryopreserved early passages of PDXs in nude mice as described in previous publications (Kim M P, et al, Nat Protoc 2009; 4(11): 1670-80). Briefly, tumor samples stored in CryoStor™ CS10 storage medium were recovered and cut into about 2 mm3 fragments, soaked in Matrigel, and implanted into the subcutaneous space of Balb/c nude mice (5 mice/PDX). Tumors were harvested when they reach 1.5 cm in diameter for generating tissue slices for drug testing with quadruplicates.
(§5) About 100 tissue slices were produced from 1 tumorgraft with tissue slicer and arrayed in 96-well plates with previously established method (Roife D, et al, Clin Cancer Res 2016). […] Same volume of medium with 0.1% DMSO was added into control wells. After 72 hours, tissue viabilities were measured with PrestoBlue method. Viability inhibition will be calculated through normalization of viabilities of tissue slices treated with inhibitor against the viability of control (DMSO treated) slices. Inhibition of viability was further analyzed with t-test. […]

PATX55 tissue slices = experiment: Live Tissue Sensitivity Assay (LTSA), PATX55; type: cell-based; settings: 72 hours
Method: as §4, §5

PATX92 tissue slices = experiment: Live Tissue Sensitivity Assay (LTSA), PATX92; type: cell-based; settings: 72 hours
Method: as §4, §5

Mia-PaCa-2 spheroids = experiment: 3D spheroid growth (IncuCyte ZOOM), Mia-PaCa-2; type: cell-based, human; settings: for size of the spheroids: MiaPaca-2, gemcitabine 0.5, 1.0, 5.0 μM, LHRH-curcumin 10, 20 μM, 5 days
Method: A protocol that enables the growth of identical size single cancer cell spheroids in Matrigel in 96 well plates has been developed.
Panc-1 and Mia-Paca-2 cells were grown in 10% FBS DMEM. Cells were collected after trypsinization and resuspended in phenol-red free DMEM with 10% FBS. Cells were labeled with CellTracker Red (Life Techmologies) for 5 minutes. After labeling cells were washed with PBS and transfer into 96-well Corning 7007 ULA round bottom plates at 1,000 cells/well in 100 μl phenol-red free media with 10% FBS and 5% Matrigel. […] Spheroids were grown at 37° C. and 5% CO2 in IncuCyte ZOOM (Essen Bioscience). Images were acquired every 4 h for a period of 120 h post-treatment and software analysis was design to identify the red object in the well. The data were expressed as fold increase in spheroids size at the end of the treatment using the “average red object area in the well” as determined by the IncuCyte software analysis. Reproducibility was confirmed in three independent experiments. Spheroids grew at a uniform rate (FIG. 1).

[3] = test system: cleaved PARP, XIAP and cIAP2 in MiaPaca-2 cells; experiment: Western blot of apoptosis markers and inhibitors of apoptosis, MiaPaca-2; type: cell-based, human; settings: for apoptosis marker cleaved PARP: 24 h post-treatment, LHRH-curcumin 10-100 uM, gemcitabine 1-20 uM
Method: as §3, with “Pancreatic” for “Pancreatic cancer”, “treatment, whole cell” for “treatment whole-cell”, “used: XIAP, c-IAP2,” for “used:”, “Caspase-3” for “c-IAP2, XIAP, cleaved Parp-1”, “Cruz) and LHRHR (Abcam).” for “Cruz).”
(§6) Western blot analysis. Actin, GAPDH and Ponceau staining were used as loading controls. Gemcitabine was diluted in water. Curcumin and LHRH-curcumin were diluted in DMSO. Cells were treated as follows:
Western blot analysis. Actin, GAPDH and Ponceau staining were used as loading controls. Gemcitabine was diluted in water. Curcumin and LHRH-curcumin were diluted in DMSO. The cells were treated as follows:
Western blot analysis. Actin was used as loading control. Both gemcitabine and LHRH-curcumin were diluted in water.

[4] = Body weight of tumor-bearing mice during treatment; settings: IP
Method: as §1, §2

[5] = test system: cleaved PARP, XIAP and cIAP2 in BxPC-3 cells; experiment: Western blot of apoptosis markers and inhibitors of apoptosis, BxPC-3; type: cell-based; settings: for XIAP and c-IAP2 protein levels: 24 h; for apoptosis marker cleaved PARP: 24 h post-treatment, LHRH-curcumin 10-100 uM, gemcitabine 1-20 uM
Method: as §3, with “Pancreatic” for “Pancreatic cancer”, “treatment, whole cell” for “treatment whole-cell”, “used: XIAP, c-IAP2,” for “used:”, “Caspase-3” for “c-IAP2, XIAP, cleaved Parp-1”, “Cruz) and LHRHR (Abcam).” for “Cruz).”
as §6
Western blot analysis. Actin, GAPDH and Ponceau staining were used as loading controls. Gemcitabine was diluted in water. Curcumin and LHRH-curcumin were diluted in DMSO.

PATX113 tissue slices = experiment: Live Tissue Sensitivity Assay (LTSA), PATX113; type: cell-based; settings: 72 hours
Method: as §4, §5

[6] = high doses: gemcitabine 100 mg/kg once a week, LHRH-curcumin 40 mg/kg twice a week, day 48
[7] = low doses: gemcitabine 50 mg/kg once a week, LHRH-curcumin 20 mg/kg twice a week, day 55
[8] = 24 h, curcumin, LHRH-curcumin 50 uM and 100 uM alone, gemcitabine alone
[9] = high doses: gemcitabine 100 mg/kg once a week, LHRH-curcumin 40 mg/kg twice a week
[10] = low doses: gemcitabine 50 mg/kg once a week, LHRH-curcumin 20 mg/kg twice a week
[11] = curcumin, LHRH-curcumin 50 uM and 100 uM alone, gemcitabine alone

| Compound | Tumor volume at necropsy [1, 6] | Tumor volume at necropsy [1, 7] | size of the spheroids (Mia-PaCa-2 spheroids) | XIAP and c-IAP2 protein levels [3, 8] | apoptosis marker cleaved PARP ([3]; curcumin) | body weight or body condition [4, 9] | body weight or body condition [4, 10] | XIAP and c-IAP2 protein levels [5, 11] | apoptosis marker cleaved PARP ([5]; curcumin) | further results |
| --- | --- | --- | --- | --- | --- | --- | --- | --- | --- | --- |
| COc1cc(/C=C/C(=O)CC(=O)/C=C/c2ccc(OC(=O)CCCC(=O)NCCCC[C@@H](NC(=O)[C@H](Cc3ccc(O)cc3)NC(=O)[C@H](CO)NC(=O)[C@H](Cc3c[nH]c4ccccc34)NC(=O)[C@H](Cc3c[nH]cn3)NC(=O)[C@@H]3CCC(=O)N3)C(=O)N[C@@H](CC(C)C)C(=O)N[C@@H](CCCNC(=N)N)C(=O)N3CCC[C@H]3C(=O)NCC(N)=O)c(OC)c2)ccc1O [LHRH-curcumin, [DLys6]-LHRH-Curcumin] | significantly reduced | significantly reduced | decrease the size of the spheroids | down-regulated | initiate apoptosis as illustrated by the presence of cleaved PARP | does not negatively impact body weight or body condition | does not negatively impact body weight or body condition | down-regulated | initiate apoptosis as illustrated by the presence of cleaved PARP | apoptosis inhibitors (XIAP and cIAP2) ([2]; 48 h post-treatment, 30 μM): Modest reduction of apoptosis inhibitors; Sensitivity To LHRH-C (PATX193 tissue slices; single agent): Sensitive (The tissue was defined as sensitive to the treatment if both p<0.05 and at least 30% of tissue slice viability on average was inhibited); Sensitivity To LHRH-C (PATX55 tissue slices; single agent): Sensitive (The tissue was defined as sensitive to the treatment if both p<0.05 and at least 30% of tissue slice viability on average was inhibited); Sensitivity To LHRH-C (PATX92 tissue slices; single agent): Resistant; efficiency on spheroids growth, Panc-1 versus Mia-PaCa-2 (Mia-PaCa-2 spheroids; 10, 20 and 30 μM, 120 h): more efficient on Panc-1 cells than Mia-PaCa-2 cells; XIAP and c-IAP2 protein levels ([3]; 24 h, 50 uM in the presence of gemcitabine (5 uM)): down-regulated; XIAP and c-IAP2 protein levels ([3]; 72 h, LHRH-curcumin 10 uM and 20 uM in the presence of gemcitabine (5 uM and 10 uM)): down-regulated; XIAP and c-IAP2 protein levels ([5]; 50 uM in the presence of gemcitabine (5 uM)): down-regulated; Sensitivity To LHRH-C (PATX113 tissue slices; single agent): Sensitive (The tissue was defined as sensitive to the treatment if both p<0.05 and at least 30% of tissue slice viability on average was inhibited) |
| Nc1ccn([C@@H]2O[C@H](CO)[C@@H](O)C2(F)F)c(=O)n1 [gemcitabine, 2′,2′-difluoro 2′deoxycytidine, reference compound] | significantly reduced | significantly reduced | decrease the size of the spheroids | doesn't affect XIAP and c-IAP2 levels | no cleaved PARP was detected | does not negatively impact body weight or body condition | does not negatively impact body weight or body condition | doesn't affect XIAP and c-IAP2 levels | Low levels of cleaved PARP was detected | response of PATC53 cells (apoptosis markers) ([2]; 24 h post-treatment): resistance; tissue slice viability (PATX193 tissue slices; Gem 10 μM): 92.70; tissue slice viability (PATX55 tissue slices; Gem 10 μM): 95.45; tissue slice viability (PATX92 tissue slices; Gem 10 μM): 85.63; tissue slice viability (PATX113 tissue slices; Gem 10 μM): 82.19 |
